Assays:
[1] = Til et al., Food and Chemical Toxicology 1997; cited from earlier work
[2] = animal models; 10 minutes after; cited from earlier work
[3] = NOAEL (No Observed Adverse Effect Level), Til et al. 1997
Description: Food and Drug Administration GRAS Notice No. 889 Spermidine-Rich Wheat Germ Extract, the entirety of which is incorporated herein by reference. […] Til et al., Food and Chemical Toxicology 1997, v. 35, p. 337-348.

Row | SMILES | NOAEL (No Observed Adverse Effect Level) [1] | fraction of amount that reached the lumen found in the portal vein [2] | NOAEL expressed for a 70 kg person [3]
1 | NCCCNCCCCNCCCN [spermine] | 1.52 mg/kg body weight/day | Approximately 70% | ~106 mg/day
2 | NCCCCNCCCN [spermidine] | 83 mg/kg body weight/day | Approximately 70% | ~470 mg/day
